Patent publication US20250288645A1, “USE OF GsMTx4 AND GsMTx4 CONJUGATES TO IMPROVE RECOVERY FROM JOINT INJURY” (priority 2023, published 2025)
No end group written: not given here.

How the values were obtained:
Piezo1 = assay: Massive rotator cuff tear mouse model: Piezo1 immunohistochemistry; format: in vivo
Experimental: A massive rotator cuff tear (RCT) model was performed by surgical ligation of the supraspinatus and infraspinatus tendons of the right shoulder of 14-week-old C57Bl/6 male and female mice through a deltoid splitting approach. Mice were anesthetized with 2% isoflurane gas mixed with oxygen. A single dose of buprenorphine SR (0.5 mg/kg) was injected subcutaneously at the nape. The right shoulder was prepped using a chemical hair removal agent, followed by betadine solution for 2 minutes and a rinse with 70% ethanol. The remaining steps were performed under sterile technique. A #11 scalpel blade was used to sharply incise the skin and subcutaneous tissues in a longitudinal incision over the palpable border of the lateral shoulder. The deltoid fascia and muscle were sharply incised in line with the skin incision with care not to dissect distally along the humerus to protect the axillary nerve. […] Animals were monitored daily for 3 days post-operatively, and no adverse events were noted. […]
For Piezo1 immunohistochemistry, deparaffinized and rehydrated slides were incubated in citrate buffer (10 mM sodium citrate, 0.05% Tween-20, pH 6.0) for […] at 75° C. […] Chondrocyte Piezo1 protein expression was quantified by average threshold intensity of immunofluorescence by ImageJ analysis through raw intensity averaging. […]

chondrocytes = assay: Massive rotator cuff tear mouse model: chondrocyte mechano-vulnerability; format: in vivo; details: rotator cuff injury, subcutaneous injection; versus contralateral control joint and saline-injected animals
Experimental: Ethical approval was obtained from the appropriate institutional committee Humeri were harvested from wild-type 12-22 week old C57Bl/6 male and female mice. Each specimen was placed in calcium imaging buffer with 2 mM calcium chloride and subsequently incubated with 10 μM calcein-AM for 30 minutes at 37° C. To indicate intracellular esterase activity of living cells, each specimen was incubated with 10 μM yoda1, a Piezo1-specific agonist, 5 nM GSK101, a TRPV4-agonist, or control (DMSO 0.25%, n=7-10/group) in calcium imaging buffer for 15 minutes. Specimens were then incubated with 1.5 nM ethidium homodimer-1 for 3 minutes to indicate loss of plasma membrane integrity in dead cells. The specimen was then arranged in a custom 3-D printed holding device such that the chondrocytes within the apex of sphericity of the humeral head were facing the glass well of a dish to be imaged on an inverted confocal microscope. […] A custom MATLAB image processing algorithm was developed to quantify cell viability. […] Then, watershed segmentation, distance transform, and centroid approximation algorithms were created and applied to segment and quantify individual cells based on intensity values. This facilitated the cell counting process, allowed quantification of the total cell area, and allowed adjustment of the region of interest between before- and after-impact micrographs. […]

## GsMTx4 (GCLEFWWKCNPNDDKCCRPKLKCSKLFKLCNFSF-NH2; ends and bridges not checked; listed as Grammostola spatulata)
Piezo1; RC ligation, subcutaneous twice weekly, 14 weeks post-operatively, p<0.05
  humeral head chondrocyte Piezo1 protein expression versus contralateral control joint: significantly lower humeral head chondrocyte Piezo1 protein expression
Piezo1; RCT, treated post-injury with GsMTx4
  Piezo1 expression in cells from RCT shoulders versus animals not treated with GsMTx4: reduced expressed of Piezo1
chondrocytes
  chondrocyte vulnerability: reduction in chondrocyte vulnerability
